Patent publication US20040171795A1, “Novel peptides” (priority 2000, published 2004)

Tests used:
nuclease Bal 31 = assay: Nuclease resistance-imparting ability for P=O form oligonucleotide; format: biochemical; settings: 2 U Bal 31, 30° C., 60 minutes, peptide 50 μM, oligonucleotide 3 μM
Description: Nuclease resistance-imparting ability for natural (P═O form) oligonucleotide was evaluated. To be more specific, 2 U of nuclease Bal 31 (manufactured by Takara Shuzo) was added to 20 mM Tris-HCl buffer (pH=8) containing 50 μM of the peptide of SEQ ID NO:1 prepared in Example 1, 3 μM of P═O form oligonucleotide prepared in Example 6, 150 mM NaCl, 12 mM MgCl2, and 12 mM CaCl2, and the reaction was allowed to take place at 30° C. for 60 minutes. Next, the oligonucleotide which escaped from the decomposition was extracted with phenol/chloroform, and subjected to electrophoresis by the procedure described in Example 8 to stain the oligonucleotide.

Vero = assay: Luciferase plasmid introduction versus phosphatidyl serine translocation; format: cell-based, monkey
Source text: (§1) A cell line established from monkey kidney (Vero cell) and a human bladder cancer cell (T24 cell) purchased from American Type Culture Collection (ATCC) and human lung cancer cell (A549 cell) purchased from Dainippon Pharmaceutical were inoculated on a 24 well culture plate (manufactured by NALGEN NUNC) at 1×10^5 cells/well. Vero cell and A549 cell were cultivated in DMEM (manufactured by Life Technologies Oriental) supplemented with 10% fetal bovine serum (hereinafter referred to as FBS, manufactured by NICHIREI), and T24 cell was cultivated in McCoy's 5a (manufactured by Life Technologies Oriental) supplemented with 10% FBS in 5% CO2 atmosphere at 37° C. for 24 hours. […] The luciferase activity expressed in the cell was then measured by the method instructed in luciferase assay system (manufactured by Promega). […] 20 μL of this cell lysate and 100 μL of the Luciferase Assay Reagent II attached to the kit was added to a fluorescence-measuring plate (Microlite™ 1 plate, manufactured by Dynatech), and after mixing, fluorescence was measured for 1 second by using a multilabel counter (ARVO™ SY1420 MULTILABEL COUNTER, manufactured by Wallac Beltold. […]

[1] = system: cell (Vero, T24 or A549 of Example 9; not given); assay: Nucleic acid-introducing ability, luciferase-expressing plasmid (procedure of Example 9); format: cell-based
Source text: A cell line established from monkey kidney (Vero cell) and a human bladder cancer cell (T24 cell) purchased from American Type Culture Collection (ATCC) and human lung cancer cell (A549 cell) purchased from Dainippon Pharmaceutical were inoculated on a 24 well culture plate (manufactured by NALGEN NUNC) at 1×10^5 cells/well. Vero cell and A549 cell were cultivated in DMEM (manufactured by Life Technologies Oriental) supplemented with 10% fetal bovine serum (hereinafter referred to as FBS, manufactured by NICHIREI), and T24 cell was cultivated in McCoy's 5a (manufactured by Life Technologies Oriental) supplemented with 10% FBS in 5% CO2 atmosphere at 37° C. for 24 hours. After removing the medium, opti-MEM (manufactured by Life Technologies Oriental) prepared to have the concentration of the luciferase-expressing plasmid prepared in Example 7 of 1 μg/mL and the concentration of the peptide prepared in Example 1 of 1.25, 2.5, or 5 μM was added, and the cells were cultivated for 5 hours. Next, in the case of Vero cell and A549 cell, the culture medium was replaced with DMEM supplemented with 10% FBS, and in the case of T24 cell, the medium was replaced with McCoy's 5a supplemented with 10% FBS, and cultivation was continued in 5% CO2 atmosphere and at 37° C. for another 24 hours. The luciferase activity expressed in the cell was then measured by the method instructed in luciferase assay system (manufactured by Promega). To be more specific, the cells were washed with phosphate-buffered saline (hereinafter referred to as PBS, manufactured by SIGMA), and the cells were lyzed with Passive Lysis Buffer attached to the kit. 20 μL of this cell lysate and 100 μL of the Luciferase Assay Reagent II attached to the kit was added to a fluorescence-measuring plate (Microlite™ 1 plate, manufactured by Dynatech), and after mixing, fluorescence was measured for 1 second by using a multilabel counter (ARVO™ SY1420 MULTILABEL COUNTER, manufactured by Wallac Beltold.
Concentration of the protein in the cell lysate was measured by mixing 8 μL of the cell lysate and 200 μL of the protein assay solution (manufactured by Biorad) with 792 μL of ultrapure water in a disposable cuvette (UV fluorescent cuvette A204X, manufactured by Funakoshi), allowing the mixture to stand for 5 minutes at room temperature, and measuring the absorption at 595 nm with a spectrophotometer (DU640, manufactured by Beckman). Bovine serum albumin (BSA) was used for the standard protein. By using the thus obtained results, count per 1 second per 1 mg of protein of the cell lysate was calculated to thereby use the count as the luciferase activity, and the highest count in the three conditions of different peptide concentration was designated the gene-introducing ability of the peptide.
It is to be noted that the nucleic acid-introducing ability was classified as described below on the bases of the fluorescent count per 1 mg of protein per 1 second (cps/mg protein).

[2] = Measurement of turbidity in BSA; format: physicochemical; settings: BSA 1%, peptide 50 μM, absorbance at 600 nm
Description: The solutions were evaluated for their absorbance at a wavelength of 600 nm by using a spectrophotometer (DU640, manufactured by Beckman).

[3] = Affinity by surface plasmon resonance (Biacore 2000), flow cell 2; format: binding; settings: SPR, HPA chip, 0.1 mg/mL BSA; compared with flow cell 1
Description: The specific affinity of the peptide for phosphatidyl serine was evaluated by means of surface plasmon resonance (SPR) using Biacore 2000 (manufactured by Biacore). To be more specific, phosphatidyl choline was immobilized on flow cell 1, and 50% of phosphatidyl serine and 50% of phosphatidyl choline were immobilized on flow cell 2 of HPA chip (manufactured by Biacore), and ability of the peptide to bind to the phospholipid was evaluated in the presence of 0.1 mg/mL BSA to thereby evaluate the affinity.

plasmid (pUC119) = assay: Binding ability to plasmid (electrophoresis); settings: charge ratio (+/−ratio) of 3
Description: The plasmid prepared by the procedure described in Example 7 (pUC119; final concentration, 20 μg/mL) and the peptides prepared by the procedure described in Examples 1 to 3 were mixed in 20 mM Tris HCl buffer (pH=7.2) containing 150 mM NaCl at a charge ratio (+/−ratio) of 0 to 3, and the mixture was allowed to stand at 37° C. for 30 minutes. Electrophoresis was then conducted on 1% agarose gel to thereby determine the binding of the plasmid and the peptide.
The +/−ratio (charge ratio) indicated in FIG. 11 is the ratio of the number (+) of the positively-charged groups in the peptide to the number (−) of negatively-charged groups in the plasmid. As evident in FIG. 11, the amount of plasmid that became bound to the peptide increased with the increase in the charge ratio (+/−ratio), and the plasmid was fully bound to the peptide at a charge ratio (+/−ratio) of 3. The peptides of SEQ ID NO:2 to SEQ ID NO:24 were also found to bind at a charge ratio (+/−ratio) of 3.

T24 = assay: Luciferase plasmid introduction versus phosphatidyl serine translocation; format: cell-based, human
Source text: as §1

A549 = assay: as above; format: cell-based, human
Source text: as §1

Luciferase activity (Vero): 2.5 × 10^6 cps/mg protein | binding of plasmid to the peptide (plasmid (pUC119)): fully bound | Luciferase activity (T24): 7.8 × 10^3 cps/mg protein | Luciferase activity (A549): 8.7 × 10^4 cps/mg protein
Substance: SEQ ID NO: 1: peptide having the amino acid sequence of SEQ ID NO:1, made by solid phase synthesis (TRYLRIHPRSWVHQIALRLRYLRIHPRSWVHQIALRS; synthetic peptide using an automatic peptide synthesizer)
nuclease resistance-imparting ability for natural (P═O form) oligonucleotide (nuclease Bal 31): found to exhibit nuclease resistance-imparting ability | Nucleic acid-introducing ability ([1]; class of fluorescent count per 1 mg of protein per 1 second, highest of peptide 1.25, 2.5, 5 μM, plasmid 1 μg/mL): 3+ (1,000,000 to less than 10,000,000) | ability of introducing the nucleic acid into a cell ([1]; procedure of Example 9, luciferase-expressing plasmid): found to have the ability of introducing the nucleic acid into a cell | OD 600 [2]: 0.03 | binding to flow cell 2 (50% phosphatidyl serine, 50% phosphatidyl choline) [3]: stronger
